The text below walks through data of ChEMBL document CHEMBL1765050, “Cyclopropyl and isopropyl derivatives of 11-cis and 9-cis retinals at C-9 and C-13: subtle steric differences with major effects on ligand efficacy in rhodopsin” (J Nat Prod, 2011).

In the test the target is Rhodopsin (Bos taurus) (UniProt P02699). Nature of the test: Agonist activity at bovine rhodopsin assessed as opsin mediated cognate G protein transducer activation by fluorescence assay. The class given is functional. Further details: concentration or dose not given beside the values.
Chain of Rhodopsin (Bos taurus) (P02699 whole entry): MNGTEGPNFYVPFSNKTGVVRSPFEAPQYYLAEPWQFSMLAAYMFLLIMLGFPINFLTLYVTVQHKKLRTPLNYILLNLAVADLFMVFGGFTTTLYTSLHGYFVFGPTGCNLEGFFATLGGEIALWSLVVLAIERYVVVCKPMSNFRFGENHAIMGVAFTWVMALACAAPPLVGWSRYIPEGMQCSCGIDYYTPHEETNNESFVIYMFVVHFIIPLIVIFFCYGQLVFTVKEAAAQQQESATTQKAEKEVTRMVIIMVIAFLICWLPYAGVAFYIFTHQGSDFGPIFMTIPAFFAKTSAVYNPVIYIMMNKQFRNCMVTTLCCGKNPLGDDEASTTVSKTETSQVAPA
As to `CC1=C(/C=C/C(C)=C\C=C\C(=C\C=O)C(C)C)C(C)(C)CCC1`, the Activity turned out to be 139%.

In the case of `CC1=C(/C=C/C(C)=C\C=C\C(=C\C=O)C2CC2)C(C)(C)CCC1`, the Activity stood at 53%.

`CC1=C(/C=C/C(=C\C=C\C(C)=C\C=O)C2CC2)C(C)(C)CCC1`: the Activity was found to be 60%.

`CC1=C(/C=C/C(C)=C/C=C\C(C)=C\C=O)C(C)(C)CCC1`: the Activity stood at 100%.

`CC1=C(/C=C/C(=C/C=C\C(C)=C\C=O)C2CC2)C(C)(C)CCC1`: the Activity came out at 83%.

For `CC1=C(/C=C/C(C)=C\C=C\C(C)=C\C=O)C(C)(C)CCC1`, the Activity was 104%.
